In brackets after ≈: the same amount, converted by molar mass.

In one assay the test system is EA.hy 926. Put plainly: Cytotoxic activity, MTT colorimetric cell growth assay. Format: cell-based. The conditions noted are these: Homo sapiens; EA.hy 926 cells, 72 h cultivation with agent, 37° C.; read-out: Cell line and cyctotoxic acivity IC50, EA.hy 926. The procedure: (§1) Experiments were performed in microtiter plates (2×10^4 cells/cm^2) at 37° C. After a precultivation period of 24 h the antineoplastic agent was added and cultivation was continued for 72 h. Cell growth was determined by a colorimetric assay based on the conversion of 3-(4,5-dimethyl-2-thiazolyl)-2,5-diphenyltetrazolium (MMT) to a blue formazan product using live mitochondria according to Mosmann, J. Immunolog. Methods 1983, 65, 55.

The next assay deals with MHEC 5T. Described as above. Format: cell-based. Particulars: MHEC5-T; MHEC 5T cells, 72 h cultivation with agent, 37° C.; read-out: Cell line and cyctotoxic acivity IC50, MHEC 5T. On the procedure:
as §1

The IC50 is the concentration that gives 50% inhibition. In the case of `O=c1[nH]c(=O)n(COCCCCCCCCCCCCO)cc1F` [Compound 3b, 5-Fluoro-1-((12′-hydroxydodecyloxy)-methyl)-uracil], the 50% inhibitory concentration (IC50) was determined as 45 µg/mL (≈ 131 µM) in the assay with EA.hy 926 and 14 µg/mL (≈ 40.6 µM) with MHEC 5T.
